Experimental data taken from ChEMBL document CHEMBL4507289, “Data for DCP probe GSM1” (2021).
Activity calls are given as the source filed them. The rule behind the calls is not given here.

Key:
[1] = target: Amyloid-beta precursor protein (Homo sapiens, UniProt P05067); experiment: Aβ40 inhibition assay
[2] = tested on: Tyrosine-protein kinase ABL1 (Homo sapiens), P00519 [F317I]; settings: Compound concentration 1000.0 nM
[3] = tested on: Tyrosine-protein kinase ABL1 (Homo sapiens), P00519 [F317I]; settings: Compound concentration 1000.0 nM; remark: listed apart in the source
[4] = tested on: Tyrosine-protein kinase ABL1 (Homo sapiens), P00519 [T315I]; settings: Compound concentration 1000.0 nM
[5] = target: RAC-alpha serine/threonine-protein kinase (Homo sapiens) (UniProt P31749); settings: Compound concentration 1000.0 nM
[6] = target: 5'-AMP-activated protein kinase catalytic subunit alpha-1 (Homo sapiens) (UniProt Q13131); settings: Compound concentration 1000.0 nM
[7] = target: Mitogen-activated protein kinase kinase kinase 6 (Homo sapiens) (UniProt O95382); settings: Compound concentration 1000.0 nM
Sequence of Mitogen-activated protein kinase kinase kinase 6 (Homo sapiens) (O95382 whole entry): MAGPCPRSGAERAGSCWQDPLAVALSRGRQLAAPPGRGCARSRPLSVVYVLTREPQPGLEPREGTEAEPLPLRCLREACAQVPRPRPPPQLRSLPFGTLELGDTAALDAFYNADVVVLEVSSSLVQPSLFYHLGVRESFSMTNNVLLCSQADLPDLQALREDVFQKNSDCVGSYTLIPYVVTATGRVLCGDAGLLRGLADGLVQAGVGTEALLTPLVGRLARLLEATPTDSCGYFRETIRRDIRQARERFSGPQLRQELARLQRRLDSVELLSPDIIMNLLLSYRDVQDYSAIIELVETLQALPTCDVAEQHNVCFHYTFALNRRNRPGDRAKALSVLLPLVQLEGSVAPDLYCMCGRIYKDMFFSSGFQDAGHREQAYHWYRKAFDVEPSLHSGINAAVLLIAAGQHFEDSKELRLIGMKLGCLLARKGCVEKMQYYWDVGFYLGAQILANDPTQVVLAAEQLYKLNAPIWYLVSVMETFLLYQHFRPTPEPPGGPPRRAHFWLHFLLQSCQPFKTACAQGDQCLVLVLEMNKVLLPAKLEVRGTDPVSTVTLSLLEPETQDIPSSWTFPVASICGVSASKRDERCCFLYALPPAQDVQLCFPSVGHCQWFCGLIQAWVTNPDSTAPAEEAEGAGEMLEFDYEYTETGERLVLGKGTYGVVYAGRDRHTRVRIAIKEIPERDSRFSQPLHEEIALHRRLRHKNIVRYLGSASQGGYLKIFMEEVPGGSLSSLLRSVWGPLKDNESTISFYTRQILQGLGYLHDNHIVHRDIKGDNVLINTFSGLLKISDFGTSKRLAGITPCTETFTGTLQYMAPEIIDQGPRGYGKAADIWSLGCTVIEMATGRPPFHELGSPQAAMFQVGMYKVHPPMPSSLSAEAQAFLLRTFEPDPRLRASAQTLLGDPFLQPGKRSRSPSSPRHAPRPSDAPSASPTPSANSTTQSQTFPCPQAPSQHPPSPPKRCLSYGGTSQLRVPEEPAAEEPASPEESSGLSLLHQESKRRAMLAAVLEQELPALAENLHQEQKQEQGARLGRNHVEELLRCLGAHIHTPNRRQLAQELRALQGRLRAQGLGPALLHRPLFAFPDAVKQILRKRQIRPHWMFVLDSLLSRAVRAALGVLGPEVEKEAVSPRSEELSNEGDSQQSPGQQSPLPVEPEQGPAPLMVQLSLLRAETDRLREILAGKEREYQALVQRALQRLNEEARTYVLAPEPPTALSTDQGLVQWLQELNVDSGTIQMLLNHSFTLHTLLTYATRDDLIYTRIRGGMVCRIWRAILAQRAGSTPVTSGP

[8] = target: Calcium/calmodulin-dependent protein kinase type 1D (Homo sapiens) (UniProt Q8IU85); settings: Compound concentration 1000.0 nM
[9] = target: Cyclin-dependent kinase 11A (Homo sapiens) (UniProt Q9UQ88); settings: Compound concentration 1000.0 nM
[10] = target: Dual specificity protein kinase CLK1 (Homo sapiens) (UniProt P49759); settings: Compound concentration 1000.0 nM
[11] = target: Epidermal growth factor receptor (Homo sapiens) (UniProt P00533); settings: Compound concentration 1000.0 nM
[12] = tested on: Epidermal growth factor receptor (Homo sapiens), P00533 [L861Q]; settings: Compound concentration 1000.0 nM
[13] = target: Ephrin type-A receptor 2 (Homo sapiens) (UniProt P29317); settings: Compound concentration 1000.0 nM
[14] = target: Ephrin type-A receptor 7 (Homo sapiens) (UniProt Q15375); settings: Compound concentration 1000.0 nM
[15] = target: Tyrosine-protein kinase Fgr (Homo sapiens) (UniProt P09769); settings: Compound concentration 1000.0 nM
Sequence of Tyrosine-protein kinase Fgr (Homo sapiens) (P09769 2-529 limits assumed): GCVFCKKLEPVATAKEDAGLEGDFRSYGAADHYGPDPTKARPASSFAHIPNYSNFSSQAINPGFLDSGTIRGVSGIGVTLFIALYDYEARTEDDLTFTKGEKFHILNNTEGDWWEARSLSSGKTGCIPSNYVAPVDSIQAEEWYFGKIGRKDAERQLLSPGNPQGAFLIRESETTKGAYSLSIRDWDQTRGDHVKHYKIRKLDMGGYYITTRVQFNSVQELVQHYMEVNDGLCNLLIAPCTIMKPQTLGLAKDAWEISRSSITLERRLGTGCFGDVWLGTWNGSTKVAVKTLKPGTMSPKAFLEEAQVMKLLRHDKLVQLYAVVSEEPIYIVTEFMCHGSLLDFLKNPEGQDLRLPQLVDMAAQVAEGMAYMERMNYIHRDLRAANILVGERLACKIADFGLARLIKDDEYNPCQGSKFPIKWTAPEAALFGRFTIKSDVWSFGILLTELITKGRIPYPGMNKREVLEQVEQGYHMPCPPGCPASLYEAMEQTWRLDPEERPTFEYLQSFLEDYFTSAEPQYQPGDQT

[16] = target: Glycogen synthase kinase-3 alpha (Homo sapiens) (UniProt P49840); settings: Compound concentration 1000.0 nM
[17] = target: Mitogen-activated protein kinase kinase kinase kinase 1 (Homo sapiens) (UniProt Q92918); settings: Compound concentration 1000.0 nM
[18] = target: Inhibitor of nuclear factor kappa-B kinase subunit beta (Homo sapiens) (UniProt O14920); settings: Compound concentration 1000.0 nM
[19] = target: Interleukin-1 receptor-associated kinase 3 (Homo sapiens) (UniProt Q9Y616); settings: Compound concentration 1000.0 nM
[20] = target: Tyrosine-protein kinase JAK3 (Homo sapiens) (UniProt P52333); settings: Compound concentration 1000.0 nM
[21] = target: Mitogen-activated protein kinase 10 (Homo sapiens) (UniProt P53779); settings: Compound concentration 1000.0 nM
[22] = tested on: Mast/stem cell growth factor receptor Kit (Homo sapiens), P10721 [V559D,V654A]; settings: Compound concentration 1000.0 nM
[23] = target: Leukocyte tyrosine kinase receptor (Homo sapiens) (UniProt P29376); settings: Compound concentration 1000.0 nM
Sequence of Leukocyte tyrosine kinase receptor (Homo sapiens) (P29376 whole entry): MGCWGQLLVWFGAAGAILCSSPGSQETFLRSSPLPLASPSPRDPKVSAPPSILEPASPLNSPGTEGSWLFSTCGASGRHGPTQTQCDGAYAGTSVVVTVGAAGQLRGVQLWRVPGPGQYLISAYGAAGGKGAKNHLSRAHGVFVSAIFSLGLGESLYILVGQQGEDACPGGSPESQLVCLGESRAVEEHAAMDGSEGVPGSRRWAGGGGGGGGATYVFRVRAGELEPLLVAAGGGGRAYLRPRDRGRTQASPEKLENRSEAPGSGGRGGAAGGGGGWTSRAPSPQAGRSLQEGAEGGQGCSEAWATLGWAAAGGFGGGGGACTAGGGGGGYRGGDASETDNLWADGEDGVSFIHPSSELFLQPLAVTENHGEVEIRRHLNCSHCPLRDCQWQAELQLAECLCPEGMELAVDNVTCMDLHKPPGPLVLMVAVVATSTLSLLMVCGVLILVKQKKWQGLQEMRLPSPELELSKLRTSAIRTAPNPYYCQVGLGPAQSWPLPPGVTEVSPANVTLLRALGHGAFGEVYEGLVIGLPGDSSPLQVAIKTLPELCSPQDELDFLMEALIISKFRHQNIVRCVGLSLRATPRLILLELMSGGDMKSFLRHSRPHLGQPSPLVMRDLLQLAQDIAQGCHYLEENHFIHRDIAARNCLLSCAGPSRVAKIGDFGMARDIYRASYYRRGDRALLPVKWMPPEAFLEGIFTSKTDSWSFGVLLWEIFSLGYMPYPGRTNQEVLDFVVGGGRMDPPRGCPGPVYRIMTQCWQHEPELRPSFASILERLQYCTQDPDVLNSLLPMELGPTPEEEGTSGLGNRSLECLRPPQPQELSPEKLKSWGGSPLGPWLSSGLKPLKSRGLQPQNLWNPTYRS

[24] = target: Serine/threonine-protein kinase MARK1 (Homo sapiens) (UniProt Q9P0L2); settings: Compound concentration 1000.0 nM
[25] = tested on: Hepatocyte growth factor receptor (Homo sapiens), P08581 [M1250T]; settings: Compound concentration 1000.0 nM
[26] = target: Mitogen-activated protein kinase kinase kinase 11 (Homo sapiens) (UniProt Q16584); settings: Compound concentration 1000.0 nM
[27] = target: Serine/threonine-protein kinase 26 (Homo sapiens) (UniProt Q9P289); settings: Compound concentration 1000.0 nM
[28] = target: Mitogen-activated protein kinase 14 (Homo sapiens) (UniProt Q16539); settings: Compound concentration 1000.0 nM
[29] = target: 3-phosphoinositide-dependent protein kinase 1 (Homo sapiens) (UniProt O15530); settings: Compound concentration 1000.0 nM
[30] = target: Phosphatidylinositol 4,5-bisphosphate 3-kinase catalytic subunit alpha isoform (Homo sapiens) (UniProt P42336); settings: Compound concentration 1000.0 nM
Sequence of Phosphatidylinositol 4,5-bisphosphate 3-kinase catalytic subunit alpha isoform (Homo sapiens) (P42336 whole entry, canonical isoform): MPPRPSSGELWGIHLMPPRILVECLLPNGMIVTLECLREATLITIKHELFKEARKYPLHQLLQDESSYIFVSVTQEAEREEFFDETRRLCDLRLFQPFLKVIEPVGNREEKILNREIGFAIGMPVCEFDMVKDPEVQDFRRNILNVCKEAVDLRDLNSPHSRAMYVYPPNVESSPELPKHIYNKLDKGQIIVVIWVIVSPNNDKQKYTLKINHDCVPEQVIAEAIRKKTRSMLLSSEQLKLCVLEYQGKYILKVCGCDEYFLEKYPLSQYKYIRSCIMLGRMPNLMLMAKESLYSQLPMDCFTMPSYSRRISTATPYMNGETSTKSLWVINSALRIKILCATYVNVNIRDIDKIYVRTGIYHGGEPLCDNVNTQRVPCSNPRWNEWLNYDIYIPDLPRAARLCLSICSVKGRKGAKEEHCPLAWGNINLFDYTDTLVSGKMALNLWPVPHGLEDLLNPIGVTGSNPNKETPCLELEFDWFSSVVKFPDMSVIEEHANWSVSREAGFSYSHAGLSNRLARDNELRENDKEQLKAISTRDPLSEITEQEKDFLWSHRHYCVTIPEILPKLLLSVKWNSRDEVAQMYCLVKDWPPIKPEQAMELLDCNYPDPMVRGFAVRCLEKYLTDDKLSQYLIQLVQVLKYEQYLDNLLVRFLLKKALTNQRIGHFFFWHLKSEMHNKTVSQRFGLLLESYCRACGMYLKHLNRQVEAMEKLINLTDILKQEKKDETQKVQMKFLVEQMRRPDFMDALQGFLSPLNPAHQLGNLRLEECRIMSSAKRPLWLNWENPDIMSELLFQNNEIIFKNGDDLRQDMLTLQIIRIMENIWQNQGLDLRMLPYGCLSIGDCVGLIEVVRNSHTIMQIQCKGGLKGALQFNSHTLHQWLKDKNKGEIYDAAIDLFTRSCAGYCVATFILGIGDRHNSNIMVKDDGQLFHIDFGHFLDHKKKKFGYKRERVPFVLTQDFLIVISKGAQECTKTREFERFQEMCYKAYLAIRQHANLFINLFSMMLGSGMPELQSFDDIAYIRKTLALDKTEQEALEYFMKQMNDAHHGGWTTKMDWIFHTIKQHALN

[31] = target: Phosphatidylinositol 4,5-bisphosphate 3-kinase catalytic subunit beta isoform (Homo sapiens) (UniProt P42338); settings: Compound concentration 1000.0 nM
[32] = target: Phosphatidylinositol 5-phosphate 4-kinase type-2 beta (Homo sapiens) (UniProt P78356); settings: Compound concentration 1000.0 nM
Sequence of Phosphatidylinositol 5-phosphate 4-kinase type-2 beta (Homo sapiens) (P78356 whole entry): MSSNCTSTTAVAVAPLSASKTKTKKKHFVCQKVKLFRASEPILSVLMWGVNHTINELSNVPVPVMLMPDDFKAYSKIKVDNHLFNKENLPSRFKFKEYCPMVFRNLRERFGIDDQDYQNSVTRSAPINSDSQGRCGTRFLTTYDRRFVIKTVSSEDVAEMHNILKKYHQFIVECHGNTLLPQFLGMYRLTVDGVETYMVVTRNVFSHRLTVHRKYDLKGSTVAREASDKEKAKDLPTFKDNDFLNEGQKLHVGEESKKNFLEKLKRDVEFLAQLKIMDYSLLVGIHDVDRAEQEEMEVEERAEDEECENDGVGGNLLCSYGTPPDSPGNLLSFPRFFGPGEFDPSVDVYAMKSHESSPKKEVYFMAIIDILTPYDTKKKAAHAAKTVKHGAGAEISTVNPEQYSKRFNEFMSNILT

[33] = target: cAMP-dependent protein kinase catalytic subunit alpha (Homo sapiens) (UniProt P17612); settings: Compound concentration 1000.0 nM
[34] = target: Membrane-associated tyrosine- and threonine-specific cdc2-inhibitory kinase (Homo sapiens) (UniProt Q99640); settings: Compound concentration 1000.0 nM
[35] = target: Serine/threonine-protein kinase N1 (Homo sapiens) (UniProt Q16512); settings: Compound concentration 1000.0 nM
[36] = target: Interferon-induced, double-stranded RNA-activated protein kinase (Homo sapiens) (UniProt P19525); settings: Compound concentration 1000.0 nM
[37] = target: Receptor-interacting serine/threonine-protein kinase 2 (Homo sapiens) (UniProt O43353); settings: Compound concentration 1000.0 nM
Sequence of Receptor-interacting serine/threonine-protein kinase 2 (Homo sapiens) (O43353 whole entry): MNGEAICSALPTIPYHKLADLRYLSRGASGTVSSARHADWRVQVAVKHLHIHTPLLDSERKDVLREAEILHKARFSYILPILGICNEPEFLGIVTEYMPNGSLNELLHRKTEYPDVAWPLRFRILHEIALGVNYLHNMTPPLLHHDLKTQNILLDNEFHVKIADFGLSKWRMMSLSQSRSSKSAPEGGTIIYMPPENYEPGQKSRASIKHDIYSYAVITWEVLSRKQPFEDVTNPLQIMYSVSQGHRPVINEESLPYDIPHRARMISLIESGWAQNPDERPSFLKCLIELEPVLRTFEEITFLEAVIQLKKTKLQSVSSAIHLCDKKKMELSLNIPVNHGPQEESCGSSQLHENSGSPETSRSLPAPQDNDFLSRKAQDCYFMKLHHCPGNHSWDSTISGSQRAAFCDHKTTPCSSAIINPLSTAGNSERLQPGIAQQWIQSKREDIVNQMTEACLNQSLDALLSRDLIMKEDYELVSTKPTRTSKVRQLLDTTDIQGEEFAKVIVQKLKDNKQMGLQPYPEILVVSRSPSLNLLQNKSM

[38] = target: Proto-oncogene tyrosine-protein kinase ROS (Homo sapiens) (UniProt P08922); settings: Compound concentration 1000.0 nM
[39] = target: Ribosomal protein S6 kinase alpha-1 (Homo sapiens) (UniProt Q15418); settings: Compound concentration 1000.0 nM
[40] = target: Ribosomal protein S6 kinase alpha-3 (Homo sapiens) (UniProt P51812); settings: Compound concentration 1000.0 nM
[41] = target: Serine/threonine-protein kinase Sgk3 (Homo sapiens) (UniProt Q96BR1); settings: Compound concentration 1000.0 nM
[42] = target: Serine/threonine-protein kinase ULK1 (Homo sapiens) (UniProt O75385); settings: Compound concentration 1000.0 nM
[43] = target: 5-hydroxytryptamine receptor 1B (Homo sapiens) (UniProt P28222); settings: Compound concentration 10.0 uM
[44] = target: 5-hydroxytryptamine receptor 2A (Homo sapiens) (UniProt P28223); settings: Compound concentration 10.0 uM
[45] = target: Histamine H2 receptor (Homo sapiens, UniProt P25021); settings: Compound concentration 10.0 uM
Sequence of Histamine H2 receptor (P25021 whole entry): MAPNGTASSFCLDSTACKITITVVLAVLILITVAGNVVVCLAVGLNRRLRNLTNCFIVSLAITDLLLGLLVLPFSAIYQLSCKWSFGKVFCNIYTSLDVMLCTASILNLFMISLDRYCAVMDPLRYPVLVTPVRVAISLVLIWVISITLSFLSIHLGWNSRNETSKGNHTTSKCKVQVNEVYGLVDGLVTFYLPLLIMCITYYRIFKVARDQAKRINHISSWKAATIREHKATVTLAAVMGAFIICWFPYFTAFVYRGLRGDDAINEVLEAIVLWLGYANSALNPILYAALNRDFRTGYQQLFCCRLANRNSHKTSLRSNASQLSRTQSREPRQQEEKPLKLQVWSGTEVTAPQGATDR

**Q.** How did the IC50 [1] turn out when COc1cc(-c2cn([C@H]3CCc4ccccc4N(CC(F)(F)F)C3=O)nn2)ccc1-n1ccc(C)n1 was run?
**A.** Its IC50 is > 10 µM (not active).

**Q.** What about the residual activity [2] of the same compound?
**A.** The residual activity was 65%.

**Q.** What about the residual activity [3] of the same compound?
**A.** Its residual activity is 67%.

**Q.** And the residual activity [4]?
**A.** The residual activity was 70%.

**Q.** What about the residual activity [5] of the same compound?
**A.** The residual activity was 97%.

**Q.** And the residual activity [6]?
**A.** The residual activity was 100%.

**Q.** And the residual activity [7]?
**A.** The residual activity was 53%.

**Q.** And the residual activity [8]?
**A.** The residual activity was 100%.

**Q.** And the residual activity [9]?
**A.** Its residual activity is 97%.

**Q.** What about the residual activity [10] of the same compound?
**A.** Its residual activity is 87%.

**Q.** What about the residual activity [11] of the same compound?
**A.** The residual activity was 100%.

**Q.** And the residual activity [12]?
**A.** The residual activity was 100%.

**Q.** And the residual activity [13]?
**A.** The residual activity was 100%.

**Q.** What about the residual activity [14] of the same compound?
**A.** The residual activity was 100%.

**Q.** And the residual activity [15]?
**A.** The residual activity was 90%.

**Q.** And the residual activity [16]?
**A.** Its residual activity is 86%.

**Q.** And the residual activity [17]?
**A.** The residual activity was 100%.

**Q.** And the residual activity [18]?
**A.** Its residual activity is 99%.

**Q.** What about the residual activity [19] of the same compound?
**A.** Its residual activity is 91%.

**Q.** What about the residual activity [20] of the same compound?
**A.** The residual activity was 88%.

**Q.** What about the residual activity [21] of the same compound?
**A.** The residual activity was 61%.

**Q.** What about the residual activity [22] of the same compound?
**A.** The residual activity was 100%.

**Q.** And the residual activity [23]?
**A.** The residual activity was 100%.

**Q.** And the residual activity [24]?
**A.** Its residual activity is 99%.

**Q.** And the residual activity [25]?
**A.** The residual activity was 100%.

**Q.** And the residual activity [26]?
**A.** Its residual activity is 100%.

**Q.** And the residual activity [27]?
**A.** Its residual activity is 83%.

**Q.** And the residual activity [28]?
**A.** Its residual activity is 94%.

**Q.** And the residual activity [29]?
**A.** The residual activity was 100%.

**Q.** What about the residual activity [30] of the same compound?
**A.** Its residual activity is 69%.

**Q.** And the residual activity [31]?
**A.** Its residual activity is 100%.

**Q.** What about the residual activity [32] of the same compound?
**A.** The residual activity was 65%.

**Q.** What about the residual activity [33] of the same compound?
**A.** Its residual activity is 100%.

**Q.** What about the residual activity [34] of the same compound?
**A.** The residual activity was 100%.

**Q.** What about the residual activity [35] of the same compound?
**A.** Its residual activity is 100%.

**Q.** What about the residual activity [36] of the same compound?
**A.** The residual activity was 87%.

**Q.** What about the residual activity [37] of the same compound?
**A.** The residual activity was 93%.

**Q.** What about the residual activity [38] of the same compound?
**A.** Its residual activity is 100%.

**Q.** And the residual activity [39]?
**A.** The residual activity was 82%.

**Q.** And the residual activity [40]?
**A.** The residual activity was 97%.

**Q.** What about the residual activity [41] of the same compound?
**A.** The residual activity was 84%.

**Q.** What about the residual activity [42] of the same compound?
**A.** Its residual activity is 76%.

**Q.** And the inhibition [43]?
**A.** The inhibition was 30.8%.

**Q.** And the inhibition [44]?
**A.** The inhibition was 5.83%.

**Q.** And the inhibition [45]?
**A.** The inhibition was 4.13%.

**Q.** What does the source list for COc1cc(-c2cn([C@H]3CCc4c(F)cccc4N(CC(F)(F)F)C3=O)nn2)ccc1-n1cnc(C)c1?
**A.** IC50 [1]: 0.131 µM (active); residual activity [2]: 79%; residual activity [3]: 100%; residual activity [4]: 83%; residual activity [5]: 96%; residual activity [6]: 100%; residual activity [7]: 98%; residual activity [8]: 100%; residual activity [9]: 100%; residual activity [10]: 77%; residual activity [11]: 100%; residual activity [12]: 100%; residual activity [13]: 100%; residual activity [14]: 100%; residual activity [15]: 100%; residual activity [16]: 100%; residual activity [17]: 100%; residual activity [18]: 100%; residual activity [19]: 100%; residual activity [20]: 100%; residual activity [21]: 72%; residual activity [22]: 97%; residual activity [23]: 100%; residual activity [24]: 100%; residual activity [25]: 100%; residual activity [26]: 100%; residual activity [27]: 90%; residual activity [28]: 100%; residual activity [29]: 93%; residual activity [30]: 94%; residual activity [31]: 100%; residual activity [32]: 73%; residual activity [33]: 100%; residual activity [34]: 100%; residual activity [35]: 96%; residual activity [36]: 100%; residual activity [37]: 100%; residual activity [38]: 100%; residual activity [39]: 81%; residual activity [40]: 100%; residual activity [41]: 100%; residual activity [42]: 100%; inhibition [43]: 35%; inhibition [44]: 11.5%; inhibition [45]: 51.8%
